From patent publication US7767659B2, “Synthesis of naturally occurring ecteinascidins and related compounds” (Pharma Mar, S.A., priority 2002, dated 2010)

Tests used:
A-549 = assay: cells; settings: Homo sapiens, A549, 48 h; for GI50: read-out: A549 GI50; for CC50: read-out: A549 LC50; for IC (TGI): read-out: A549 TGI
Outline: (§1)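 Colorimetric SRB read (490 nm) on triplicate wells after 48 h at 37 °C, 5% CO2. Dose range 10 to 10^−8 μg/ml; 5×10^3 cells/well pre-attached 18 h.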

HT-29 = assay: cells; settings: Homo sapiens, HT-29, 48 h; for GI50: read-out: HT29 GI50; for CC50: read-out: HT29 LC50; for IC (TGI): read-out: HT29 TGI
Outline: as §1

LoVo = assay: cells; settings: Homo sapiens, LoVo, 48 h; for GI50: read-out: LOVO GI50; for CC50: read-out: LOVO LC50; for IC (TGI): read-out: LOVO TGI
Outline: as §1

DU-145 = assay: Inhibition of cells growth by colorimetric assay (SRB); settings: Homo sapiens, DU-145, 48 h; for GI50: read-out: DU145 GI50; for CC50: read-out: DU145 LC50; for IC (TGI): read-out: DU145 TGI
Outline: as §1

HeLa-APL = assay: as above; settings: Homo sapiens, 48 h; for GI50: read-out: HELA-APL GI50; for CC50: read-out: HELA-APL LC50; for IC (TGI): read-out: HELA-APL TGI
Outline: as §1

HeLa = assay: as above; settings: Homo sapiens, HeLa, 48 h; for GI50: read-out: HELA GI50; for CC50: read-out: HELA LC50; for IC (TGI): read-out: HELA TGI
Outline: as §1

IGROV-1 = assay: as above; settings: Homo sapiens, IGROV-1, 48 h; for GI50: read-out: IGROV GI50; for CC50: read-out: IGROV LC50; for IC (TGI): read-out: IGROV TGI
Outline: as §1

IGROV-ET = assay: as above; settings: Homo sapiens, 48 h; for GI50: read-out: IGROV-ET GI50; for CC50: read-out: IGROV-ET LC50; for IC (TGI): read-out: IGROV-ET TGI
Outline: as §1

K-562 = assay: as above; settings: Homo sapiens, K562, 48 h; for GI50: read-out: K562 GI50; for CC50: read-out: K562 LC50; for IC (TGI): read-out: K562 TGI
Outline: as §1

LNCaP = assay: as above; settings: Homo sapiens, LNCaP, 48 h; for GI50: read-out: LNCAP GI50; for CC50: read-out: LNCAP LC50; for IC (TGI): read-out: LNCAP TGI
Outline: as §1

LoVo-Dox = assay: as above; settings: Homo sapiens, 48 h; for GI50: read-out: LOVO-DOX GI50; for CC50: read-out: LOVO-DOX LC50; for IC (TGI): read-out: LOVO-DOX TGI
Outline: as §1

PANC-1 = assay: as above; settings: Homo sapiens, PANC-1, 48 h; for GI50: read-out: PANC-1 GI50; for CC50: read-out: PANC-1 LC50; for IC (TGI): read-out: PANC-1 TGI
Outline: as §1

SK-BR-3 = assay: as above; settings: Homo sapiens, SK-BR-3, 48 h; for GI50: read-out: SK-BR3 GI50; for CC50: read-out: SK-BR3 LC50; for IC (TGI): read-out: SK-BR3 TGI
Outline: as §1

SK-MEL-28 = assay: as above; settings: Homo sapiens, SK-MEL-28, 48 h; for GI50: read-out: MEL-28 GI50; for CC50: read-out: MEL-28 LC50; for IC (TGI): read-out: MEL-28 TGI
Outline: as §1

**Q.** Which GI50 (A-549) does the source give for `COc1cc2c(cc1O)CCN[C@]21CS[C@@H]2c3c(OC(=O)/C=C/c4ccccc4)c(C)c4c(c3[C@H](COC1=O)N1C2[C@@H]2N[C@@H](Cc3cc(C)c(OC)c(O)c32)[C@@H]1O)OCO4` (stereo partly drawn) [compound 53] here?
**A.** Its GI50 is 3.34 nM.

**Q.** What about the CC50 (A-549) of the same compound?
**A.** The CC50 was 2210 nM.

**Q.** What about the IC (TGI) (A-549) of the same compound?
**A.** Its IC (TGI) is 0.00817 µM.

**Q.** And the GI50 (HT-29)?
**A.** The GI50 was 4.33 nM.

**Q.** And the CC50 (HT-29)?
**A.** Its CC50 is 2.74 µM.

**Q.** What about the IC (TGI) (HT-29) of the same compound?
**A.** The IC (TGI) was 0.0183 µM.

**Q.** What about the GI50 (LoVo) of the same compound?
**A.** The GI50 was 3.82 nM.

**Q.** What about the CC50 (LoVo) of the same compound?
**A.** The CC50 was 2.94 µM.

**Q.** What about the IC (TGI) (LoVo) of the same compound?
**A.** Its IC (TGI) is 0.00854 µM.

**Q.** And the GI50 (DU-145)?
**A.** The GI50 was 3.58 nM.

**Q.** And the CC50 (DU-145)?
**A.** The CC50 was 3040 nM.

**Q.** And the IC (TGI) (DU-145)?
**A.** The IC (TGI) was 0.0243 µM.

**Q.** What about the GI50 (HeLa-APL) of the same compound?
**A.** The GI50 was 2.99 nM.

**Q.** And the CC50 (HeLa-APL)?
**A.** Its CC50 is 38.9 nM.

**Q.** What about the IC (TGI) (HeLa-APL) of the same compound?
**A.** The IC (TGI) was 0.0122 µM.

**Q.** And the GI50 (HeLa)?
**A.** Its GI50 is 3.12 nM.

**Q.** What about the CC50 (HeLa) of the same compound?
**A.** Its CC50 is 83.9 nM.

**Q.** What about the IC (TGI) (HeLa) of the same compound?
**A.** The IC (TGI) was 0.00755 µM.

**Q.** What about the GI50 (IGROV-1) of the same compound?
**A.** Its GI50 is 2.74 nM.

**Q.** What about the CC50 (IGROV-1) of the same compound?
**A.** Its CC50 is 2.74 µM.

**Q.** And the IC (TGI) (IGROV-1)?
**A.** Its IC (TGI) is 0.00672 µM.

**Q.** What about the GI50 (IGROV-ET) of the same compound?
**A.** The GI50 was 10.2 nM.

**Q.** And the CC50 (IGROV-ET)?
**A.** Its CC50 is 6.45 µM.

**Q.** What about the IC (TGI) (IGROV-ET) of the same compound?
**A.** The IC (TGI) was 1.4 µM.

**Q.** What about the GI50 (K-562) of the same compound?
**A.** The GI50 was 1.54 nM.

**Q.** And the CC50 (K-562)?
**A.** The CC50 was 583 nM.

**Q.** And the IC (TGI) (K-562)?
**A.** Its IC (TGI) is 0.013 µM.

**Q.** And the GI50 (LNCaP)?
**A.** The GI50 was 1.87 nM.

**Q.** And the CC50 (LNCaP)?
**A.** The CC50 was 8.33 nM.

**Q.** What about the IC (TGI) (LNCaP) of the same compound?
**A.** The IC (TGI) was 0.00395 µM.

**Q.** What about the GI50 (LoVo-Dox) of the same compound?
**A.** Its GI50 is 57.9 nM.

**Q.** And the CC50 (LoVo-Dox)?
**A.** Its CC50 is 5.24 µM.

**Q.** What about the IC (TGI) (LoVo-Dox) of the same compound?
**A.** Its IC (TGI) is 1.45 µM.

**Q.** And the GI50 (PANC-1)?
**A.** Its GI50 is 3.36 nM.

**Q.** What about the CC50 (PANC-1) of the same compound?
**A.** Its CC50 is 1.44 µM.

**Q.** And the IC (TGI) (PANC-1)?
**A.** The IC (TGI) was 0.0101 µM.

**Q.** What about the GI50 (SK-BR-3) of the same compound?
**A.** Its GI50 is 2.95 nM.

**Q.** What about the CC50 (SK-BR-3) of the same compound?
**A.** Its CC50 is 1820 nM.

**Q.** What about the IC (TGI) (SK-BR-3) of the same compound?
**A.** Its IC (TGI) is 0.0299 µM.

**Q.** What about the GI50 (SK-MEL-28) of the same compound?
**A.** Its GI50 is 2.21 nM.

**Q.** What about the CC50 (SK-MEL-28) of the same compound?
**A.** The CC50 was 7.2 nM.

**Q.** What about the IC (TGI) (SK-MEL-28) of the same compound?
**A.** The IC (TGI) was 0.004 µM.

**Q.** Which results are given for `C=CCN1[C@@H]2c3c(cc(C)c(OC)c3O)C[C@H]1[C@H](C#N)N1C2[C@@H]2SC[C@]3(NCCc4cc(OC(=O)OC(C)(C)C)c(OC)cc43)C(=O)OC[C@H]1c1c3c(c(C)c(O)c12)OCO3` (stereo partly drawn) [compound 46]?
**A.** GI50 (A-549): 28.9 nM; CC50 (A-549): 2770 nM; IC (TGI) (A-549): 0.0618 µM; GI50 (HT-29): 42.9 nM; CC50 (HT-29): 11.7 µM; IC (TGI) (HT-29): 0.117 µM; GI50 (LoVo): 55.3 nM; CC50 (LoVo): 11.7 µM; IC (TGI) (LoVo): 0.304 µM; GI50 (DU-145): 23.4 nM; CC50 (DU-145): 105 nM; IC (TGI) (DU-145): 0.0496 µM; GI50 (HeLa-APL): 27.7 nM; CC50 (HeLa-APL): 97.8 nM; IC (TGI) (HeLa-APL): 0.052 µM; GI50 (HeLa): 26.4 nM; CC50 (HeLa): 97.4 nM; IC (TGI) (HeLa): 0.0501 µM; GI50 (IGROV-1): 29.9 nM; CC50 (IGROV-1): 11.7 µM; IC (TGI) (IGROV-1): 0.0724 µM; GI50 (IGROV-ET): 285 nM; CC50 (IGROV-ET): 11.7 µM; IC (TGI) (IGROV-ET): 1.35 µM; GI50 (K-562): 23 nM; CC50 (K-562): 4250 nM; IC (TGI) (K-562): 0.0648 µM; GI50 (LNCaP): 14.7 nM; CC50 (LNCaP): 59.2 nM; IC (TGI) (LNCaP): 0.0296 µM; GI50 (LoVo-Dox): 426 nM; CC50 (LoVo-Dox): 11.7 µM; IC (TGI) (LoVo-Dox): 1.35 µM; GI50 (PANC-1): 61.9 nM; CC50 (PANC-1): 11.7 µM; IC (TGI) (PANC-1): 0.398 µM; GI50 (SK-BR-3): 18.6 nM; CC50 (SK-BR-3): 247 nM; IC (TGI) (SK-BR-3): 0.0532 µM; GI50 (SK-MEL-28): 29.6 nM; CC50 (SK-MEL-28): 107 nM; IC (TGI) (SK-MEL-28): 0.0564 µM
